Test results reported in patent publication US7439265B2, “Irciniastatins a and b” (Arizona Board of Regents, a body corporate of the State of …, priority 2003, dated 2008).
Converted amounts (≈) assume the structure as drawn.

What was measured:
[1] = system: P388 lymphocytic leukemia cells; experiment: Inhibition of mouse leukemia P388 cell growth; type: cell-based; conditions: P388 murine leukemia, in Table 2
Procedure: (§1) Inhibition of human cancer cell growth was assessed using the National Cancer Institute's standard sulforhodamine B assay as previously described. Briefly, cells in a 5% fetal bovine serum/RPMI1640 medium solution were inoculated in 96-well plates and incubated for 24 hours Serial dilutions of the compounds were then added. After 48 hours, the plates were fixed with trichloroacetic acid, stained with sulforhodamine B and read with an automated microplate reader. A growth inhibition of 50% (GI50 of the drug concentration causing a 50% reduction in the net protein increase) was calculated from optical density data with Immunosoft software. Inhibition of the mouse leukemia P388 cells was assessed in a 10% horse serum/Fisher medium solution for 24 hours, followed by a 48 hour incubation with serial dilutions of the compounds. Cell growth inhibition (ED50) was then calculated using a Z1 Beckman/Coulter particle counter. (Monks, A., et al., Feasibility of high-flux anticancer screen using a diverse panel of cultured human tumor cell lines, J Natl. Cancer Inst. 1991, 83, 757-766.)

[2] = system: Neisseria gonorrhoeae ATCC 49226; experiment: Broth microdilution antibacterial susceptibility; type: cell-based
Procedure: (§2) Ircinastatin A (1) was evaluated against the bacteria Stenotrophomonas maltophilia ATCC 13637, Micrococcus luteus Presque Isle 456, Staphylococcus aureus ATCC 29213, Escherichia coli ATCC 25922, Enterobacter cloacae ATCC 13047, Enterococcus faecalis ATCC 29212, Streptococcus pneumoniae ATCC 6303 and Neisseria gonorrhoeae ATCC 49226, and the fungi Candida albicans ATCC 90028 and Cryptococcus neoformans ATCC 90112, following established broth microdilution susceptibility assays. The minimum inhibitory concentration was defined as the lowest concentration of irciniastatin A that inhibited all visible growth of the test organism (optically clear). Assays were repeated on separate days. (National Committee for Clinical Laboratory Standards. Methods for Dilution Antimicrobial Susceptibility Tests for Bacteria that Grow Aerobically. Approved Standard M7-A5. Wayne, Pa.: NCCLS, 2000; National Committee for Clinical Laboratory Standards. Reference Method for Broth Dilution Antifungal Susceptibility Testing of Yeasts. Approved Standard M27-A. Wayne, Pa.: NCCLS, 1997.)

[3] = system: KM20L2 colon cancer cell line; experiment: Sulforhodamine B cancer cell growth inhibition, KM20L2; type: cell-based, human; conditions: 48 hours
Procedure: as §1

[4] = system: HUVEC (human umbilical vascular endothelial cells); experiment: Growth inhibition of normal endothelial cells (HUVEC); type: cell-based
[5] = system: MCF-7 breast cancer cell line; experiment: Sulforhodamine B cancer cell growth inhibition, MCF-7; type: cell-based, human; conditions: 48 hours
Procedure: as §1

[6] = system: SF268 CNS cancer cell line; experiment: Sulforhodamine B cancer cell growth inhibition, SF268; type: cell-based, human; conditions: 48 hours
Procedure: as §1

[7] = system: BXPC-3 pancreas cancer cell line; experiment: Sulforhodamine B cancer cell growth inhibition, BXPC-3; type: cell-based, human; conditions: 48 hours
Procedure: as §1

[8] = system: DU-145 prostate cancer cell line; experiment: Sulforhodamine B cancer cell growth inhibition, DU-145; type: cell-based, human; conditions: 48 hours
Procedure: as §1

[9] = system: NCI-H460 lung cancer cell line; experiment: Sulforhodamine B cancer cell growth inhibition, NCI-H460; type: cell-based, human; conditions: for GI50: NCI-H460 lung, 48 hours
Procedure: as §1

[10] = system: Cryptococcus neoformans ATCC 90112; experiment: Broth microdilution antifungal susceptibility; type: cell-based
Procedure: as §2

[11] = system: murine P388 leukemia cell line and six human cancer cell lines; experiment: Cancer cell growth inhibition, P388 plus minipanel of human cancer cell lines (summary); type: cell-based; conditions: against P388, BXPC-3, MCF-7 and SF268
Procedure: as §1

Q: Which GI50 [1] does the source give for C=C(C)CC(OC)[C@H](O)C(=O)N[C@@H](OC)[C@@H]1C[C@@H](O)C(C)(C)[C@@H](C[C@H](O)[C@@H](C)[C@H]2Cc3c(C)c(O)cc(O)c3C(=O)O2)O1 (stereo partly shown) [Irciniastatin A, irciniastatin A] here?
A: Its GI50 is 4.13 ng/mL (≈ 6.77 nM).

Q: What about the minimum inhibitory concentration [2] of the same compound?
A: Its minimum inhibitory concentration is 64000 ng/mL (≈ 105000 nM).

Q: And the GI50 [3]?
A: Its GI50 is 2.7 ng/mL (≈ 4.43 nM).

Q: And the GI50 [4]?
A: The GI50 was under 0.5 ng/mL.

Q: What about the GI50 [5] of the same compound?
A: Its GI50 is 3.2 ng/mL (≈ 5.25 nM).

Q: And the GI50 [6]?
A: The GI50 was 3.4 ng/mL (≈ 5.58 nM).

Q: And the GI50 [7]?
A: Its GI50 is 3.8 ng/mL (≈ 6.23 nM).

Q: And the GI50 [8]?
A: Its GI50 is 2.4 ng/mL (≈ 3.94 nM).

Q: And the “activity of irciniastatin A relative to irciniastatin B” value ([9]; NCI-H460 lung cancer cells)?
A: The value was “at least 10 times”.

Q: What about the GI50 [9] of the same compound?
A: Its GI50 is under 0.1 ng/mL.

Q: And the minimum inhibitory concentration [10]?
A: Its minimum inhibitory concentration is 16000 ng/mL (≈ 26200 nM).

Q: How did the GI50 [1] turn out when C=C(C)C[C@H](OC)[C@H](O)C(=O)N[C@@H](OC)[C@@H]1CC(=O)C(C)(C)[C@@H](C[C@H](O)[C@@H](C)[C@H]2Cc3c(C)c(O)cc(O)c3C(=O)O2)O1 [Irciniastatin B, irciniastatin B] was run?
A: Its GI50 is 6 ng/mL (≈ 9.87 nM).

Q: What about the GI50 [3] of the same compound?
A: Its GI50 is 2.1 ng/mL (≈ 3.46 nM).

Q: What about the “cell growth inhibition of irciniastatin B (2) relative to irciniastatin A (1)” value [11] of the same compound?
A: The value was “ten times stronger”.

Q: What about the GI50 [5] of the same compound?
A: The GI50 was 0.5 ng/mL (≈ 0.823 nM).

Q: What about the GI50 [6] of the same compound?
A: The GI50 was 0.66 ng/mL (≈ 1.09 nM).

Q: What about the GI50 [7] of the same compound?
A: The GI50 was 0.73 ng/mL (≈ 1.2 nM).

Q: What about the GI50 [8] of the same compound?
A: Its GI50 is 1.6 ng/mL (≈ 2.63 nM).

Q: What about the GI50 [9] of the same compound?
A: Its GI50 is 1.2 ng/mL (≈ 1.97 nM).
